Measurements taken from US9326513B2, “Fungicidal compositions” (Syngenta Participations AG, priority 2011, dated 2016).

Assays:
Format in all cases: in vivo
Conditions in all cases: foliar, compared to untreated control leaf disks, read-out: disease control
[1] = tested on: Puccinia recondita f. sp. tritici; test: Puccinia recondita f. sp. tritici / wheat / leaf disc curative (brown rust)
Method: Puccinia recondita f. sp. tritici/Wheat/Leaf Disc Curative (Brown Rust) Wheat leaf segments cv. Kanzler are placed on agar in multiwell plates (24-well format). The leaf segments are inoculated with a spore suspension of the fungus. Plates were stored in darkness at 19° C. and 75% rh. The formulated test compound diluted in water was applied 1 day after inoculation.

[2] = tested on: Puccinia recondita f. sp. tritici; test: Puccinia recondita f. sp. tritici / wheat / leaf disc preventative (brown rust)
Description: Puccinia recondita f. sp. tritici/Wheat/Leaf Disc Preventative (Brown Rust) Wheat leaf segments cv. Kanzler were placed on agar in multiwell plates (24-well format) and sprayed with the formulated test compound diluted in water. The leaf disks were inoculated with a spore suspension of the fungus 1 day after application.

Pyrenophora teres = Pyrenophora teres / barley / leaf disc preventative (net blotch)
Description: Pyrenophora teres/Barley/Leaf Disc Preventative (Net Blotch) Barley leaf segments cv. Hasso were placed on agar in a multiwell plate (24-well format) and sprayed with the formulated test compound diluted in water. The leaf segments were inoculated with a spore suspension of the fungus 2 days after application.

[3] = tested on: Blumeria graminis f. sp. tritici (Erysiphe graminis f. sp. tritici); test: Blumeria graminis f. sp. tritici / wheat / leaf disc preventative (powdery mildew on wheat)
Method in brief: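 Preventative leaf-disc test: compound (200 ppm) was sprayed onto cv. Kanzler wheat segments, which were dusted with conidia from infected plants 1 day after application. After incubation at 20° C and 60% rh, disease control relative to untreated segments was rated 6-8 days after application.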

Measured: pest or weed control at 200 ppm

CCN(C)/C=N/c1cc(Br)c(OC(C)c2cccc(C(C)F)c2)nc1C (stereo not drawn) [Q.292]
≥ 50%: all assays above

CCN(C)/C=N/c1cc(Br)c(OCc2cccc(C#N)c2)nc1C [Q.155]
≥ 50%: all assays above

CCC(Oc1ccc(/N=C/N(C)C(C)C)c(C)n1)c1cc(C)cc(C)c1 (stereo not drawn) [Q.361]
≥ 50%: all assays above

CCN(C)/C=N/c1cc(Br)c(OC2CCC(c3ccccc3)CC2)nc1C (stereo not drawn) [Q.082]
≥ 50%: all assays above

Cc1ccccc1CCOc1ccc(/N=C/N(C)C(C)C)c(C)n1 [Q.352]
≥ 50%: all assays above

CCN(C)/C=N/c1cc(Br)c(O[C@@H](C)c2cc(F)cc(F)c2)nc1C [Q.260]
≥ 50%: all assays above

CCN(C)/C=N/c1cc(Br)c(OC2CCc3ccccc3C2)nc1C (stereo not drawn) [Q.110]
≥ 50%: all assays above

CCN(C)/C=N/c1cc(Br)c(OC2CCC(C)CC2)nc1C (stereo not drawn) [Q.141]
≥ 50%: all assays above

CCN(C)/C=N/c1cc(Br)c(OCCCCc2ccc(Br)cc2)nc1C [Q.047]
≥ 50%: all assays above

CCN(C)/C=N/c1cc(Br)c(OC(C)c2cc(-c3ccccc3)no2)nc1C (stereo not drawn) [Q.075]
≥ 50%: all assays above

CCN(C)/C=N/c1cc(Br)c(OC(C)c2ccccc2)nc1C (stereo not drawn) [Q.102]
≥ 50%: all assays above

CCc1nc(OCc2ccccc2C)c(Br)cc1/N=C/N(C)CC [Q.398]
≥ 50%: all assays above

CCN(C)/C=N/c1cc(Br)c(OC/C=C\c2cccc(OC)c2)nc1C [Q.023]
≥ 50%: all assays above

CCN(C)/C=N/c1ccc(OC(C)Cc2ccccc2C)nc1C (stereo not drawn) [Q.354]
≥ 50%: all assays above

CCN(C)/C=N/c1cc(Br)c(O[C@H](C)c2cc(F)cc(F)c2)nc1C [Q.261]
≥ 50%: all assays above

CCc1cc(/N=C/N(C)CC)c(C)nc1OC(C)c1cc(F)cc(F)c1 (stereo not drawn) [Q.228]
≥ 50%: all assays above

CCN(C)/C=N/c1ccc(OC(C)c2cc(C)cc(C)c2)nc1C (stereo not drawn) [Q.358]
≥ 50%: all assays above

Cc1nc(OC2CCC3(CC2)OCCO3)c(Br)cc1/N=C/N(C)C [Q.054]
≥ 50%: all assays above

CCN(C)/C=N/c1cc(Br)c(OCc2cccnc2)nc1C [Q.106]
≥ 50%: all assays above

CCN(C)/C=N/c1cc(Br)c(OC2CCc3cc(F)ccc3C2)nc1C (stereo not drawn) [Q.025]
≥ 50%: all assays above

CCN(C)/C=N/c1cc(Br)c(OCc2cccc(C(C)F)c2)nc1C (stereo not drawn) [Q.291]
≥ 50%: all assays above

CCCN(C)/C=N/c1cc(Br)c(OC(C)c2cc(F)cc(F)c2)nc1C (stereo not drawn) [Q.191]
≥ 50%: all assays above

CCN(C)/C=N/c1cc(I)c(O[C@H]2CC[C@@H](C(C)C)CC2)nc1C [Q.180]
≥ 50%: all assays above

CCN(C)/C=N/c1cc(Br)c(OCc2ccccc2Br)nc1C [Q.302]
≥ 50%: all assays above

CCN(C)/C=N/c1cc(C)c(OC(C)c2cc(F)cc(F)c2)nc1C (stereo not drawn) [Q.184]
≥ 50%: all assays above

CCN(C)/C=N/c1cc(Br)c(OC2Cc3ccc(OC)cc3C2)nc1C (stereo not drawn) [Q.199]
≥ 50%: all assays above

CCN(C)/C=N/c1cc(Br)c(OCc2ccc(Cc3ccccc3)cc2)nc1C [Q.121]
≥ 50%: all assays above

CCN(C)/C=N/c1cc(C2CC2)c(O[C@H]2CC[C@@H](C(C)C)CC2)nc1C [Q.249]
≥ 50%: all assays above

CCN(C)/C=N/c1cc(Br)c(OCc2ccccc2)nc1C [Q.095]
≥ 50%: all assays above

CCCc1cccc(COc2nc(C)c(/N=C/N(C)CC)cc2Br)c1 [Q.346]
≥ 50%: all assays above

CCN(C)/C=N/c1cc(Br)c(OC(C)CCc2ccc(OC)cc2)nc1C (stereo not drawn) [Q.013]
≥ 50%: all assays above

CCN(C)/C=N/c1cc(Br)c(OC2Cc3ccc(OCc4ccns4)cc3C2)nc1C (stereo not drawn) [Q.144]
≥ 50%: all assays above

CCN(C)/C=N/c1cc(Br)c(OC2Cc3cc(Cl)c(OC)cc3C2)nc1C (stereo not drawn) [Q.378]
≥ 50%: all assays above
